Assay results from patent US6585996B1, “Lipid-soluble thiamine derivatives in the treatment of autism” (Westlake Laboratories, Inc., priority 2002, dated 2003).

Legend:
[1] = test system: autistic children; details: 10 subjects, 50 mg TTFD twice a day, rectal suppository, two months
Description: In a pilot study, ten autistic children, eight boys and two girls, were administered 50 mg of TTFD twice a day through a rectal suppository for a two-month trial period. All the patients were previously diagnosed with autism as defined by those in the field. Parents were asked to fill in a symptom check form to assess the symptoms of the autistic children by giving a numerical score as to severity.
Both forms are scored by computer and were designed by the Autism Research Institute specifically for research of this spectrum of disease. The first form, Form E2, is a diagnostic tool that allocates points on a symptomatic basis. The higher the score, the closer the patient comes to being considered a classic case of autism. The common form of autism that is occurring within the pilot test group seldom reaches the score that indicates classic autism, defined as the inability of a person to relate themself in the ordinary way to people and situations from the beginning of life.
The second form, the ATEC (Autism Treatment Evaluation Checklist) form, also allocates points on a symptomatic basis. […] In addition to completing the forms based on patient behavior, physiological changes were also measured.
Clinical improvement, as shown by the bars, is obtained by subtracting the final ATEC score from that calculated at the outset of the study.

[2] = test system: children with autism; details: a few children with autism
Description: A few children with autism have been exposed to a dermal preparation since the study has been completed.

CC(=C(CCO)SSCC1CCCO1)N(C=O)Cc1cnc(C)nc1N (stereo in doubt) [TTFD, thiamine tetrahydrofurfuryl disulfide]
Clinical results of oral versus rectal administration: does not appear to give as striking clinical results as rectal administration | Subjects showing clinical improvement in their autistic disorder [1]: Eight of the 10 | Clinical condition with dermal preparation [2]: immediate improvement in the child's condition was noted
